The structures appear in SMILES notation. Like-named read-outs stand apart in the source and are kept apart here.

From patent US7612087B2, “Heterocyclic compounds as inhibitors of beta-lactamases” (Novexel, priority 2002, dated 2009) come the findings set out here.

The test system of assay [1] is E. cloacae 293HT6 (Class C). The assay is described as follows: MIC, micro-dilution in liquid medium, β-lactamine with product at 5 mg/l. Type of assay: cell-based. The conditions noted are these: 24 hours at 37° C.; for MIC: Enterobacter cloacae. As for the experimental part: (§1) The operation is carried out as follows, using the so-called micro-dilution in liquid medium method.
(§2) A series of concentrations of the β-lactamine is prepared in the presence of a constant concentration (5 mg/l) of the product to be studied, each is then seeded with various bacterial strains.
(§3) After incubation for 24 hours in a heating chamber at 37° C., the growth inhibition is evaluated by the absence of any bacterial development, which allows the minimal inhibitory concentrations (MIC) for each strain to be determined, expressed in milligrams/l.

Assay [2] relates to E. coli 250SJ1 (Tem7). The assay is described as above. The format is cell-based. The conditions noted are these: 24 hours at 37° C.; for MIC: Escherichia coli. As for the experimental part: as §1, §2, §3
In assay [3] the test system is E. coli 250HT22 (Tem2). Described as above. The format is cell-based. Particulars: 24 hours at 37° C.; for MIC: Escherichia coli. The protocol: as §1, §2, §3
The subject of assay [4] is E. coli 250HT21 (Tem1). The assay is described as above. The conditions noted are these: 24 hours at 37° C.; for MIC: Escherichia coli. Type of assay: cell-based. As for the experimental part: as §1, §2, §3
In assay [5] the test system is E. coli 250HT23 (Class D). The assay is described as above. The format is cell-based. Particulars: 24 hours at 37° C.; for MIC: Escherichia coli. As for the experimental part:
as §1, §2, §3

Assay [6] has as its system E. coli 250HT26 (SHV1). Described as above. Particulars: 24 hours at 37° C.; for MIC: Escherichia coli. The format is cell-based. As for the experimental part: as §1, §2, §3
For assay [7], the system named is E. coli 250BE1 (SHV4). The description is as above. The conditions noted are these: 24 hours at 37° C.; for MIC: Escherichia coli. The format is cell-based. The protocol:
as §1, §2, §3

The subject of assay [8] is S. aureus 011GO66 (PeniR). Described as above. Particulars: 24 hours at 37° C.; for MIC: Staphylococcus aureus. Type of assay: cell-based. As for the experimental part: as §1, §2, §3
Assay [9] concerns the target T1, β-lactamase TEM1 (Escherichia coli, UniProt P62593).
T1 construct: The β-lactamases are isolated from bacterial strains which are resistant to penicillins and cephalosporins; endogenous in cells; host or cells: E. coli 250HT21 (natural producer; French-press lysate, 100,000 g supernatant)
The assay is described as follows: Inhibition of isolated β-lactamase Tem-1 (Nitrocefin hydrolysis). The conditions noted are these: 100 μM Nitrocefin, 50 mM sodium phosphate buffer pH7.0, 37° C. The format is biochemical, E.coli 250HT21. As for the experimental part: (§4) A. Preparation of the β-lactamases Tem-1 and P99
(§5) The β-lactamases are isolated from bacterial strains which are resistant to penicillins and cephalosporins (Tem1 and P99 are produced by E.coli 250HT21 and E.Cloacae 293HT6 respectively).
(§6) The bacteria are cultured at 37° C. in heart-brain culture at 37 g/l (DIFCO). They are harvested at the end of the exponential phase, cooled down and centrifuged. The bacterial pellets are taken up in sodium phosphate buffer 50 mM, pH 7.0 and centrifuged again. The bacteria are taken up in two volumes of the same buffer and lyzed using a French-Press maintained at 4° C. After centrifugation for 1 hour at 100,000 g, at 4° C., the supernatants containing the soluble fraction of the bacterial extracts are recovered and frozen at −80° C.
(§7) The method uses Nitrocefin (OXOID), cephalosporin chromogene as substrate, of which the product hydrolyzed by the B-lactamases is red and absorbs at 485 nm. Beta-lactamase activity is determined kinetically by measurement of the absorbance variation at 485 nm resulting from the hydrolysis of the substrate using a plate spectrophotometer (Spectra Max More Molecular Devices). The experiments are carried out at 37° C. The quantity of enzyme was normalized and the measurements are carried out at initial speed.
(§8) Two measurements were carried out, without preincubation and with preincubation of the enzyme and inhibitor (5 mn), in order to test the irreversibility of the reaction. The products are tested at 6 or 8 concentrations in duplicate. The reaction mixture contains 100 μM of Nitrocefin and 50 mM sodium phosphate buffer pH7.0.
(§9) The hydrolysis speeds are measured with and without inhibitor. The concentration of inhibitor which inhibits by 50% the hydrolysis reaction of Nitrocefin by the enzyme (CI50) is determined. The data is processed using GraFit software (Erathycus Software).

The subject of assay [10] is E. coli 250CF1 (Tem3). The assay is described as follows: microbe, parasite or virus in culture. The format is cell-based. Particulars: 24 hours at 37° C.; for MIC: Escherichia coli. As for the experimental part:
as §1, §2, §3

Assay [11] addresses T2, β-lactamase P99 (Enterobacter cloacae, UniProt P05364).
T2 construct: The β-lactamases are isolated from bacterial strains which are resistant to penicillins and cephalosporins; endogenous in cells; host or cells: Enterobacter cloacae 293HT6 (natural producer; French-press lysate, 100,000 g supernatant)
The assay is described as follows: biochemical. The conditions noted are these: 100 μM Nitrocefin, 50 mM sodium phosphate buffer pH7.0, 37° C.; read-out: IC50 nM/P99. The protocol: as §4, §5, §6, §7, §8, §9

The subject of assay [12] is P. aeruginosa 391HT7 (PSE). The assay is described as follows: MIC, micro-dilution in liquid medium, β-lactamine with product at 5 mg/l. Type of assay: cell-based. Particulars: Pseudomonas aeruginosa, 24 hours at 37° C. The protocol:
as §1, §2, §3

Assay [13] deals with Serratia 301HT6. The assay is described as above. Particulars: Trial 10, 301HT6 Serratia, 24 hours at 37° C. The format is cell-based. The protocol: as §1, §2, §3
In assay [14] the test system is P. aeruginosa 391HT8 (PSE). The assay is described as above. The format is cell-based. The conditions noted are these: Pseudomonas aeruginosa, 24 hours at 37° C. As for the experimental part:
as §1, §2, §3

T2 sequence (P05364 21-381): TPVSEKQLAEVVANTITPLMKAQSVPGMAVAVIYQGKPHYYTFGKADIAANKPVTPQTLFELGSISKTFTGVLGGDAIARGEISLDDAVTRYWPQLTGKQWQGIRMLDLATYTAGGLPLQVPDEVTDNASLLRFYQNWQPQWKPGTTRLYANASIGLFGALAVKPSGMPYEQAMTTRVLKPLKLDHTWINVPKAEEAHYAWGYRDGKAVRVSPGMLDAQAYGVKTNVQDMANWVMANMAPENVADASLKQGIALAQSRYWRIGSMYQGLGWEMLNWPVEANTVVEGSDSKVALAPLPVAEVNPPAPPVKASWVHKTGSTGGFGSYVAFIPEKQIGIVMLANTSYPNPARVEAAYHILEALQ
T1 sequence (P62593 24-286 limits assumed): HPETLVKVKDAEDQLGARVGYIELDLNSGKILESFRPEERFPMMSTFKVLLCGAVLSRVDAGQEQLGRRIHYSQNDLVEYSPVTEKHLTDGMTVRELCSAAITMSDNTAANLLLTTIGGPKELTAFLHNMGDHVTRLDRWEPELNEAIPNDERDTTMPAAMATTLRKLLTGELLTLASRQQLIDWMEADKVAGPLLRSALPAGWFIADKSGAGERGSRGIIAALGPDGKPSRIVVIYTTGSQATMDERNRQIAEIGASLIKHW

Regarding `O=C(OCCc1ccncc1)[C@H]1CC[C@@H]2CN1C(=O)N2OS(=O)(=O)[O-].[Na+]` (relative stereo) [Example 49, sodium salt of trans 2-(4-pyridinyl)ethyl 7-oxo-6-(sulphooxy)-1,6-diazabicyclo[3.2.1]octane-2-carboxylate], the “MIC of Piperacillin in combination with the compound” value in [1] (compound at 5 mg/l, Trial 9, 293HT6 Class) came to 10 µg/mL; in assay [2] (compound at 5 mg/l, Trial 5, 250SJ1 Tem7), 5 µg/mL; in [3] (compound at 5 mg/l, Trial 3, 250HT22 Tem2) it was 2.5 µg/mL; in [4] (compound at 5 mg/l, Trial 2, 250HT21 Tem1), 1.2 µg/mL; in [5] (compound at 5 mg/l, Trial 8, 250HT23 Class D), 10 µg/mL; in [6] (compound at 5 mg/l, Trial 6, 250HT26 SHV1), 20 µg/mL. In addition, the “MIC of Piperacillin in combination with the compound” value in [7] (compound at 5 mg/l, Trial 7, 250BE1 SHV4) was found to be 20 µg/mL; in [8] (compound at 5 mg/l, Trial 1, 011GO66 peniR) it was 1.2 µg/mL; in assay [10] (compound at 5 mg/l, Trial 4, 250CF1 Tem3) it was 1.2 µg/mL. Further, the “MIC of Cefotaxime in combination with the compound” value in assay [2] (compound at 5 mg/l, Trial 5, 250SJ1 E. coli Tem7) is on record as “<=0.04 μg/ml”; in [3] (compound at 5 mg/l, Trial 3, 250HT22 E. coli Tem2), “<=0.04 μg/ml”; in assay [4] (compound at 5 mg/l, Trial 2, 250HT21 E. coli Tem1), “<=0.04 μg/ml”; in assay [5] (compound at 5 mg/l, Trial 8, 250HT23 E. coli Class D), “<=0.04 μg/ml”; in assay [6] (compound at 5 mg/l, Trial 6, 250HT26 E. coli SHV1), “<=0.04 μg/ml”; in [7] (compound at 5 mg/l, Trial 7, 250BE1 E. coli SHV4), “<=0.04 μg/ml”. Also, the “MIC of Cefotaxime in combination with the compound” value turned out to be 2.5 µg/mL in [8] (compound at 5 mg/l, Trial 1, 011GO66 S. aureus PeniR) and 0.08 µg/mL in assay [10] (compound at 5 mg/l, Trial 4, 250CF1 E. coli Tem3). Further, the IC50 in assay [9] came out at 8.2 nM; in assay [11], 98 nM.
Take `CO/N=C(\C(=O)N[C@@H]1C(=O)N2C(C(=O)O)=C(COC(C)=O)CS[C@H]12)c1csc(N)n1` [Cefotaxime, cefotaxime, reference compound]: the MIC is above 40 µg/mL in [1] (Trial 9, 293HT6 E. cloacae Class C, read-out: MIC of Cefotaxime alone); 0.08 µg/mL in assay [2] (Trial 5, 250SJ1 E. coli Tem7, read-out: MIC of Cefotaxime alone); at most 0.04 µg/mL in assay [3] (Trial 3, 250HT22 E. coli Tem2, read-out: MIC of Cefotaxime alone); at most 0.04 µg/mL in [4] (Trial 2, 250HT21 E. coli Tem1, read-out: MIC of Cefotaxime alone); 0.08 µg/mL in assay [5] (Trial 8, 250HT23 E. coli Class D, read-out: MIC of Cefotaxime alone); 0.6 µg/mL in assay [6] (Trial 6, 250HT26 E. coli SHV1, read-out: MIC of Cefotaxime alone). Further, the MIC was 40 µg/mL in assay [7] (Trial 7, 250BE1 E. coli SHV4, read-out: MIC of Cefotaxime alone); 40 µg/mL in assay [12] (Trial 11, 391HT7 P. aeruginosa PSE, read-out: MIC of Cefotaxime alone); 1.2 µg/mL in [8] (Trial 1, 011GO66 S. aureus PeniR, read-out: MIC of Cefotaxime alone); 0.3 µg/mL in [13] (read-out: MIC of Cefotaxime alone); 40 µg/mL in assay [14] (Trial 12, 391HT8 P. aeruginosa PSE, read-out: MIC of Cefotaxime alone); above 40 µg/mL in assay [10] (Trial 4, 250CF1 E. coli Tem3, read-out: MIC of Cefotaxime alone).
Turning to `CCN1CCN(C(=O)N[C@@H](C(=O)N[C@@H]2C(=O)N3[C@@H]2SC(C)(C)[C@@H]3C(=O)O)c2ccccc2)C(=O)C1=O` [Piperacillin, piperacillin, reference compound], the MIC in [1] (Trial 9, 293HT6 Class, read-out: MIC of Piperacillin alone) was above 40 µg/mL; in assay [2] (Trial 5, 250SJ1 Tem7, read-out: MIC of Piperacillin alone), above 40 µg/mL; in assay [3] (Trial 3, 250HT22 Tem2, read-out: MIC of Piperacillin alone) it was above 40 µg/mL; in assay [4] (Trial 2, 250HT21 Tem1, read-out: MIC of Piperacillin alone) it was above 40 µg/mL; in assay [5] (Trial 8, 250HT23 Class D, read-out: MIC of Piperacillin alone), above 40 µg/mL; in assay [6] (Trial 6, 250HT26 SHV1, read-out: MIC of Piperacillin alone), above 40 µg/mL. Besides, the MIC in assay [7] (Trial 7, 250BE1 SHV4, read-out: MIC of Piperacillin alone) was above 40 µg/mL; in assay [12] (Trial 11, 391HT7 PSE, read-out: MIC of Piperacillin alone) it was above 40 µg/mL; in [8] (Trial 1, 011GO66 peniR, read-out: MIC of Piperacillin alone), 10 µg/mL; in assay [13] (read-out: MIC of Piperacillin alone), 5 µg/mL; in [14] (Trial 12, 391HT8 PSE, read-out: MIC of Piperacillin alone), above 40 µg/mL; in assay [10] (Trial 4, 250CF1 Tem3, read-out: MIC of Piperacillin alone) it was above 40 µg/mL.
